Reference: PubChem BioAssay AID248 (DTP/NCI, 2004)
“And” between values parts separate entries of the source, which are not always exact repeats. Equal entries are not always repeated. Toxic doses and inconclusive results are not listed. No stated cut-off is given here; in the data, active means T/C of 150% or more; inactive means T/C below 125%.

System: L1210 leukemia ip in BDF1 mice, survival T/C
Assay: NCI In Vivo Anticancer Drug Screen. Data for tumor model L1210 Leukemia (intraperitoneal) in B6D2F1 (BDF1) mice
Settings: endpoint: mean survival time, higher = longer survival
Procedure, shortened: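 Survival endpoint. Drug-treated group vs vehicle group, expressed as T divided by C. Tumor passaged by transplantation.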

[1] = dose: 100.0 mg/kg/injection, schedule: Q04DX002 (ip), vehicle: Klucel (hydroxypropylcellulose) (HPC)
[2] = dose: 200.0 mg/kg/injection, schedule: Q04DX002 (ip), vehicle: Klucel (hydroxypropylcellulose) (HPC)
[3] = dose: 400.0 mg/kg/injection, schedule: Q04DX002 (ip), vehicle: Klucel (hydroxypropylcellulose) (HPC)
[4] = dose: 100.0 mg/kg/injection, schedule: Q01DX001 (ip), vehicle: saline
[5] = dose: 200.0 mg/kg/injection, schedule: Q01DX001 (ip), vehicle: saline
[6] = dose: 400.0 mg/kg/injection, schedule: Q01DX001 (ip), vehicle: saline
[7] = dose: 100.0 mg/kg/injection, schedule: Q04DX003 (ip), vehicle: saline with Tween-80
[8] = dose: 200.0 mg/kg/injection, schedule: Q01DX009 (ip), vehicle: saline with Tween-80
[9] = dose: 200.0 mg/kg/injection, schedule: Q04DX003 (ip), vehicle: saline with Tween-80
[10] = dose: 400.0 mg/kg/injection, schedule: Q01DX009 (ip), vehicle: saline with Tween-80
[11] = dose: 400.0 mg/kg/injection, schedule: Q04DX003 (ip), vehicle: saline with Tween-80
[12] = dose: 50.0 mg/kg/injection, schedule: Q01DX009 (ip), vehicle: saline with Tween-80
[13] = dose: 100.0 mg/kg/injection, schedule: Q01DX009 (ip), vehicle: saline with Tween-80
[14] = dose: 100.0 mg/kg/injection, schedule: Q04DX003 (ip), vehicle: saline
[15] = dose: 200.0 mg/kg/injection, schedule: Q04DX003 (ip), vehicle: saline
[16] = dose: 400.0 mg/kg/injection, schedule: Q04DX003 (ip), vehicle: saline
[17] = dose: 50.0 mg/kg/injection, schedule: Q04DX002 (ip), vehicle: Klucel (hydroxypropylcellulose) (HPC)

Measured: T/C

Cn1cnc2cc(N=Cc3ccc(N(CCCl)CCCl)cc3Cl)ccc21
inactive: [1] 108 % of control | [2] 101 % of control | [3] 101 % of control

CN(C)C=Nc1c(I)cc(I)c(CCC(=O)O)c1I
inactive: [4] 96 % of control | [5] 96 % of control | [6] 94 % of control

COc1ccc(-c2c(-c3ccccc3)oc3cc(O)ccc23)cc1
inactive: dose: 100.0 mg/kg/injection, schedule: Q04DX003 (ip), vehicle: gum acacia 90 % of control | dose: 200.0 mg/kg/injection, schedule: Q04DX003 (ip), vehicle: gum acacia 90 % of control | dose: 400.0 mg/kg/injection, schedule: Q04DX003 (ip), vehicle: gum acacia 93 % of control

Nc1nc(N)n(Cc2ccc3c(c2)OCO3)n1
inactive: dose: 100.0 mg/kg/injection, schedule: Q01DX001 (ip), vehicle: saline with Tween-80 106 % of control | [7] 104 % of control | dose: 200.0 mg/kg/injection, schedule: Q01DX001 (ip), vehicle: saline with Tween-80 104 % of control | [8] 87 % of control | [9] 101 % of control | dose: 400.0 mg/kg/injection, schedule: Q01DX001 (ip), vehicle: saline with Tween-80 108 % of control | [10] 101 % of control | [11] 102 % of control

CN(/N=C/c1ccccc1)C(=S)Nc1ccccc1
inactive: dose: 62.5 mg/kg/injection, schedule: Q04DX003 (ip), vehicle: Klucel (hydroxypropylcellulose) (HPC) 100 % of control | dose: 250.0 mg/kg/injection, schedule: Q04DX003 (ip), vehicle: Klucel (hydroxypropylcellulose) (HPC) 103 % of control

Nc1nc(N)c(CCCOc2ccc(NC(=O)CBr)cc2)c(N)n1
inactive: dose: 12.5 mg/kg/injection, schedule: Q01DX001 (ip), vehicle: Klucel (hydroxypropylcellulose) (HPC) 98 % of control | dose: 25.0 mg/kg/injection, schedule: Q01DX001 (ip), vehicle: Klucel (hydroxypropylcellulose) (HPC) 100 % of control | dose: 50.0 mg/kg/injection, schedule: Q01DX001 (ip), vehicle: Klucel (hydroxypropylcellulose) (HPC) 105 % of control

OCCN(CCO)Cc1cc(Cl)c2cccnc2c1O
inactive: dose: 75.0 mg/kg/injection, schedule: Q01DX001 (ip), vehicle: saline 102 % of control | dose: 150.0 mg/kg/injection, schedule: Q01DX001 (ip), vehicle: saline 104 % of control

Cn1c(=O)c2c(nc(OCC3CCCO3)n2C)n(C)c1=O (stereo not drawn)
inactive: [4] 106 % of control | [5] 100 % of control

CC1CCCCC12C(=O)NC(=S)NC2=O (stereo not drawn)
inactive: dose: 75.0 mg/kg/injection, schedule: Q01DX001 (ip), vehicle: other 112 % of control | dose: 150.0 mg/kg/injection, schedule: Q01DX001 (ip), vehicle: other 98 % of control | dose: 300.0 mg/kg/injection, schedule: Q01DX001 (ip), vehicle: other 101 % of control

Cc1c2cnccc2c(C)c2c1c1ccccc1n2CCNCc1ccccc1
inactive: dose: 50.0 mg/kg/injection, schedule: Q04DX003 (ip), vehicle: saline with Tween-80 87 % of control | [7] 94 % of control | [9] 103 % of control

CC(C)Oc1c(NCCO)c2cc(Cl)ccc2oc1=O
inactive: [1] 103 % of control | [2] 106 % of control | [3] 106 % of control

Nc1nc(N)c(-c2ccc(Cl)cc2)c(C(=O)O)n1
inactive: dose: 25.0 mg/kg/injection, schedule: Q01DX009 (ip), vehicle: saline with Tween-80 90 % of control | [12] 97 % of control | [13] 93 % of control and 103 % of control

COC1OC(CO)C(O)C(N)C1O (stereo not drawn)
inactive: [14] 109 % of control | [15] 98 % of control

CC(C)(C(=O)Oc1ccccc1)C(=O)Oc1ccccc1
inactive: [12] 95 % of control | [13] 100 % of control | [8] 88 % of control

O=c1cc(-c2ccccc2)oc2cc(O)cc(O)c12
inactive: dose: 50.0 mg/kg/injection, schedule: Q01DX001 (ip), vehicle: saline 100 % of control | [4] 100 % of control | [5] 100 % of control | [6] 100 % of control

O=C(O)c1ccc(F)c(F)c1
inactive: dose: 100.0 mg/kg/injection, schedule: Q04DX002 (ip), vehicle: other 110 % of control | dose: 200.0 mg/kg/injection, schedule: Q04DX002 (ip), vehicle: other 115 % of control | dose: 400.0 mg/kg/injection, schedule: Q04DX002 (ip), vehicle: other 107 % of control

Cc1nc2ccccc2c(C)c1-c1c(C)nc2ccccc2c1C
inactive: dose: 100.0 mg/kg/injection, schedule: Q01DX001 (ip), vehicle: Klucel (hydroxypropylcellulose) (HPC) 98 % of control | dose: 100.0 mg/kg/injection, schedule: Q01DX009 (ip), vehicle: saline 97 % of control | [14] 100 % of control | dose: 200.0 mg/kg/injection, schedule: Q01DX001 (ip), vehicle: Klucel (hydroxypropylcellulose) (HPC) 108 % of control | dose: 200.0 mg/kg/injection, schedule: Q01DX009 (ip), vehicle: saline 95 % of control | [15] 97 % of control | dose: 400.0 mg/kg/injection, schedule: Q01DX001 (ip), vehicle: Klucel (hydroxypropylcellulose) (HPC) 103 % of control | dose: 400.0 mg/kg/injection, schedule: Q01DX009 (ip), vehicle: saline 94 % of control | [16] 94 % of control

Nc1nncc(-c2cnnc(N)n2)n1
inactive: [17] 111 % of control | [1] 104 % of control | [2] 111 % of control

O=c1[nH]cnc2c1ncn2C1CCCCC1
inactive: dose: 23.12 mg/kg/injection, schedule: Q01DX Z (ip), vehicle: carboxymethylcellulose (CMC) 100 % of control | dose: 46.25 mg/kg/injection, schedule: Q01DX Z (ip), vehicle: carboxymethylcellulose (CMC) 105 % of control | dose: 46.25 mg/kg/injection, schedule: Q01DX Z (oral), vehicle: carboxymethylcellulose (CMC) 94 % of control | dose: 92.5 mg/kg/injection, schedule: Q01DX Z (ip), vehicle: carboxymethylcellulose (CMC) 96 % of control | dose: 92.5 mg/kg/injection, schedule: Q01DX Z (oral), vehicle: carboxymethylcellulose (CMC) 97 % of control | dose: 185.0 mg/kg/injection, schedule: Q01DX Z (ip), vehicle: carboxymethylcellulose (CMC) 100 % of control | dose: 185.0 mg/kg/injection, schedule: Q01DX Z (oral), vehicle: carboxymethylcellulose (CMC) 100 % of control | dose: 370.0 mg/kg/injection, schedule: Q01DX Z (oral), vehicle: carboxymethylcellulose (CMC) 97 % of control

CC1SC(=S)N(c2ccccc2)C1=O (stereo not drawn)
inactive: [13] 92 % of control | [8] 106 % of control

CCC(=O)C(CC)c1ccccc1OC (stereo not drawn)
inactive: [13] 95 % of control | [14] 94 % of control | [8] 95 % of control | [15] 97 % of control | [10] 108 % of control | [16] 97 % of control

O=C(c1ccccc1)c1ccc(O)c([N+](=O)[O-])c1
inactive: dose: 25.0 mg/kg/injection, schedule: Q04DX002 (ip), vehicle: Klucel (hydroxypropylcellulose) (HPC) 113 % of control | [17] 100 % of control | [1] 90 % of control

CCOCCOC(=O)COCC(=O)OCCOCC
inactive: [4] 100 % of control | [5] 94 % of control | [6] 98 % of control

CC(/C=N/NC(N)=O)=N\NC(N)=O
inactive: dose: 15.0 mg/kg/injection, schedule: Q01DX Z (ip), vehicle: saline 107 % of control | dose: 30.0 mg/kg/injection, schedule: Q01DX Z (ip), vehicle: saline 107 % of control | dose: 60.0 mg/kg/injection, schedule: Q01DX Z (ip), vehicle: saline 89 % of control | dose: 60.0 mg/kg/injection, schedule: Q01DX Z (oral), vehicle: saline 91 % of control | dose: 120.0 mg/kg/injection, schedule: Q01DX Z (oral), vehicle: saline 89 % of control | dose: 240.0 mg/kg/injection, schedule: Q01DX Z (oral), vehicle: saline 91 % of control | dose: 480.0 mg/kg/injection, schedule: Q01DX Z (oral), vehicle: saline 91 % of control

CN(C)C1c2ccccc2-c2cccc(C(=O)O)c21 (stereo not drawn)
inactive: [4] 108 % of control | [5] 103 % of control | [6] 103 % of control

[O-][n+]1ccc(Cl)c2ccsc21
inactive: [12] 102 % of control | [13] 96 % of control | [7] 103 % of control | [8] 101 % of control | [9] 97 % of control | [11] 98 % of control

COc1ccc2c[n+](C)c3c4cc(OC)c(OC)cc4ccc3c2c1
inactive: dose: 6.25 mg/kg/injection, schedule: Q04DX003 (ip), vehicle: saline with Tween-80 105 % of control | dose: 12.5 mg/kg/injection, schedule: Q04DX003 (ip), vehicle: saline with Tween-80 105 % of control | dose: 25.0 mg/kg/injection, schedule: Q04DX003 (ip), vehicle: saline with Tween-80 105 % of control
